Laboratory results published in US4642347A, “3(2-quinolinylalkoxy)phenols” (American Home Products Corporation, priority 1985, dated 1987).
Entries after “also recorded” stand apart in the source; their conditions may differ.

Key:
[1] = tested on: ovalbumin-induced bronchoconstriction; experiment: In vivo inhibition of ovalbumin-induced (anaphylactic) bronchoconstriction by endogenous mediators in sensitized guinea pigs; set-up: species or system guinea pig (Hartley); conditions: 50 mg/kg intraduodenally, 10 minutes before i.v. ovalbumin challenge; for % Inhibition: compared to its control (*P < 0.05; ***P < 0.005)
Procedure: The assay of this Example measures the in vivo ability of the compounds of the invention to inhibit the bronchospasm induced in guinea pigs by endogenous mediators of the bronchoconstriction.
(§1) The assay is carried out as follows:
Male Hartley strain guinea pigs weighing 250-350 g are sensitized to chicken ovalbumin (OA) (10 mg i.p.) on days 1 and 3 and used starting on day 26. The animals are anesthetized with pentobarbital sodium (50 mg/kg, i.p.), bilateral vagotomy is performed, and the jugular vein is cannulated for injection of drugs and the carotid artery for monitoring blood pressure. The trachea is cannulated for artificial ventilation by miniature Starling pump and for indirect measurement of respiratory volume changes as described, infra. Succinylcholine (2 mg/kg, i.v.) is administered to arrest spontaneous respiration. A cyclooxygenase inhibitor, indomethacin (10 mg/kg in tris buffer, i.v. at 9 min.) is administered to shunt arachidonic metabolism to lipoxygenase pathways. One minute later, chlorpheniramine (1.0 mg/kg in saline, i.v.) is given to attenuate the histaminic component of anaphylactic bronchoconstriction. Test drugs (dissolved in propylene glycol, polyethylene glycol or saline) are administered either intraduodenally or by aerosol at 2 or 10 minutes before antigen challenge. Anaphylactic bronchoconstriction is induced by administration by breaths of aerosolized OA (1%) or by intravenous administration of 0.1-0.3 mg/kg OA in saline. Control animals receive solvent (2 ml/kg i.d. or appropriate aerosol) in place of drug.
Respiratory volume changes are determined by a calibrated piston whose travel is recorded, via a linear transducer, on a Beckman Dynograph recorder. Maximal bronchoconstrictor volume is determined by clamping off the trachea at the end of the experiment. Overflow volumes at minutes 1, 3 and 5 are obtained from the recorded charts.
Area under the volume overflow curve (AUC) is estimated, using the overflow values at 1, 3 and 5 minutes, and expressed as a percentage of the maximal overflow AUC (equation 1): [formula] Drug effects are reported as percent inhibition of % max AUC values obtained from appropriate control animals (equation 2): [formula] Students t-test for unpaired data is used to determine statistical significance.

[2] = tested on: 5-HETE synthesis by rat glycogen-elicited polymorphonuclear leukocytes (5-lipoxygenase); experiment: Inhibition of 5-HETE synthesis by rat glycogen-elicited polymorphonuclear leukocytes (A23187, [14C] arachidonic acid); assay type: cell-based, rat (Wistar); conditions: for IC50: Leukocyte, rat peritoneal PMN, 5-HETE synthesis, read-out: 50% Inhibitory Concentration (IC50), 5-HETE
Procedure: This is especially true with respect to 5,12-diHETE, which is also denoted as LTB4 [see Ford-Hitchinson, J. Roy. Soc. Med., 74, 831 (1981)]. The assay of this Example measures the ability of the compounds of the invention to inhibit the synthesis of 5-HETE and LTB4 by rat glycogen-elicited polymorphonuclear leukocytes.
as §1
(§2) Peritoneal PMN are obtained from female Wistar rats (150-250 g) that received an i.p. injection of 6% glycogen (10 ml). After 24 hours, rats are killed by CO2 asphyxiation and peritoneal cells are harvested by peritoneal lavage using Ca^++ and Mg^++ free Hanks' balanced salt solution (HBSS). The peritoneal exudate is centrifuged at 400 g for 10 minutes. After centrifugation, the lavaged fluid is removed and the cell pellet is resuspended in HBSS containing Ca^++ and Mg^++ and 10 mM L-cysteine at a concentration of 2×10^7 cells/ml. To 1 ml portions of cell suspension, test drugs or vehicle are added and incubated at 37° C. for 10 minutes. Following this preincubation, the calcium ionophore (10 μM), A23187, is added together with 0.5 μCi [^14 C] arachidonic acid and further incubated for 10 minutes. The reaction is stopped by the addition of ice cold water (3 ml) and acidifying to pH 3.5. Lipoxygenase products are then extracted twice into diethyl ether. The pooled ether extracts are evaporated to dryness under nitrogen and the residue is redissolved in a small volume of methanol and spotted on aluminum backed pre-coated thin layer chromatographic plates. The samples are then co-chromatographed with authentic reference 5-HETE in the solvent system--hexane:ether:acetic acid (50:50:3). After chromatography, the areas associated with 5-HETE standard are identified by autoradiography, cut out and quantitated by liquid scintillation.
Results are expressed as % inhibition of [^14 C]5-HETE synthesis. [formula]

[3] = tested on: leukotrienes C4 and/or D4 induced bronchospasm; experiment: In vivo inhibition of bronchospasm induced in guinea pigs by exogenously administered leukotrienes C4 and/or D4; set-up: species or system guinea pig (Hartley); conditions: for % Maximal Bronchoconstriction / % Inhibition: 10 minutes before induction of bronchospasm; for % Inhibition: compared to its control (*P < 0.05; ***P < 0.001); for leukotriene antagonism (in words): summary of guinea pig results
[4] = tested on: PGE2 synthesis (cyclooxygenase); experiment: Inhibition of synthesis of PGE2 by rat polymorphonuclear leukocytes; assay type: cell-based, rat (Wistar); conditions: for IC50: Leukocyte, PGE2, read-out: 50% Inhibitory Concentration (IC50), Inhibition of Synthesis of PGE2; for IC50 / influence on the synthesis of PGE2 (in words): rat PMN; for cyclooxygenase inhibitory activity (in words): conclusion from TxB2 and PGE2 results
Procedure: as §2
(§3) The procedure of Example 2 is also employed for the determination of the ability of the compounds of the invention to inhibit the synthesis of the arachidonic acid cyclooxygenase oxidation products TxB2 and PGE2.
In this assay, the procedure of Example 2 is carried out as described. However, in order to determine cyclooxygenase activity, the samples are cochromatographed with authentic reference TxB2 and PGE2 in the solvent system ethyl acetate:formic acid (80:1) and the upper phase of ethyl acetate:isoctane:acetic acid:water (110:50:20:100). After chromatography, the areas associated with TxB2 and PGE2 standards are identified by autoradiography, cut out and quantitated by liquid scintillation techniques.
(§4) The results are calculated as in Example 2 and presented below.

[5] = tested on: TxB2 synthesis (cyclooxygenase); experiment: Inhibition of synthesis of TxB2 by rat polymorphonuclear leukocytes; assay type: cell-based, rat (Wistar); conditions: for IC50: Leukocyte, rat PMN, TxB2, read-out: % Inhibitory Concentration (IC50), Inhibition of Synthesis of TxB2
Procedure: as §2, §3
In this assay, the procedure of Example 2 is carried out as described. […] After chromatography, the areas associated with TxB2 and PGE2 standards are identified by autoradiography, cut out and quantitated by liquid scintillation techniques.
as §4

| Compound | % Maximal Bronchoconstriction [1] | % Inhibition [1] | IC50 [2] | % Maximal Bronchoconstriction ([3]; 50 mg/kg intraduodenally) | % Inhibition ([3]; 50 mg/kg intraduodenally) | leukotriene antagonism (in words) [3] | IC50 [4] | cyclooxygenase inhibitory activity (in words) [4] | influence on the synthesis of PGE2 (in words) [4] | IC50 [5] | potency in inhibiting TxB2 synthesis relative to the compound of Example 1 ([5]; as potent as the compound of Example 1) | 5-lipoxygenase inhibition (in words) ([2]; conclusion from Example 2) | potency in inhibiting the synthesis of 5-HETE relative to the prior art compound ([2]; rat peritoneal neutrophils, more potent than the prior art compound) | potency as inhibitor of LTD4-induced bronchoconstriction relative to the prior art compound ([3]; times more potent than the prior art compound, 50 mg/kg intraduodenally) |
| --- | --- | --- | --- | --- | --- | --- | --- | --- | --- | --- | --- | --- | --- | --- |
| Oc1ccccc1OCc1ccc2ccccc2n1 [2-(2-quinolinylmethoxy)phenol, reference compound] | 31 ± 6% | 47% | 53 µM | 43 ± 6% | 28% | ability to block leukotriene responses | 5.82 µM | potent activity as a cyclooxygenase inhibitor | quite significantly active | 6.82 µM | twice as potent | – | – | – |
| Oc1cccc(OCc2ccc3ccccc3n2)c1 [Example 1, 3-(2-Quinolinylmethoxyl)phenol] | 21 ± 8% | 53% | 6.07 µM | 10 ± 1% | 82% | potent leukotriene antagonist | > 100 µM | little or no significant cyclooxygenase inhibitory activity | failure | 14.6 µM | – | very potent 5-lipoxygenase inhibitor; also recorded: significant 5-lipoxygenase inhibition; also recorded: strong inhibitor of 5-lipoxygenase | approximately an order of magnitude more potent | approximately three |
